From ChEMBL document CHEMBL4813917, “2-((1-Phenyl-1H-1,2,3-triazol-4-yl)methyl)-2-azabicyclo[3.2.1]octan-3-one derivatives: Simplification and modification of aconitine scaffold for the discovery of novel anticancer agents” (Eur J Med Chem, 2021)
Calls of active or inactive are those of the source. The calls are words filed in the database; no cut-off is given here.

Experiments:
A549 = assay: Antiproliferative activity against human A549 cells assessed as inhibition of cell proliferation measured after 24 hrs by MTT assay; type: functional, cell-based; details: A549, 24 h
OVCAR-3 = assay: Antiproliferative activity against human OVCAR-3 cells assessed as inhibition of cell proliferation measured after 24 hrs by MTT assay; type: functional, cell-based; details: OVCAR-3, 24 h
LoVo = assay: Antiproliferative activity against human LoVo cells assessed as inhibition of cell proliferation measured after 24 hrs by MTT assay; type: functional, cell-based
HepG2 = assay: Antiproliferative activity against human HepG2 cells assessed as inhibition of cell proliferation measured after 24 hrs by MTT assay; type: functional, cell-based; details: HepG2, 24 h
SGC-7901 = assay: Antiproliferative activity against human SGC-7901 cells assessed as inhibition of cell proliferation measured after 24 hrs by MTT assay; type: functional, cell-based; details: SGC-7901, 24 h
PANC-1 = assay: Antiproliferative activity against human PANC-1 cells assessed as inhibition of cell proliferation measured after 24 hrs by MTT assay; type: functional, cell-based; details: PANC-1, 24 h
SW-620 [1] = assay: Antitumour activity against human SW-620 cells xenografted in Balb/c mouse assessed as decrease in Ki67 expression in tumour at 5 mg/kg, ip measured after 21 days immunochemical staining method; type: functional, organism-based; details: time 21.0 day
[2] = Cytotoxicity against human IOSE80 cells assessed as reduction in cell viability measured after 24 hrs by MTT assay; type: cell-based
[3] = Cytotoxicity against human MRC5 cells assessed as reduction in cell viability measured after 24 hrs by MTT assay; type: cell-based
[4] = Cytotoxicity against human GES1 cells assessed as reduction in cell viability measured after 24 hrs by MTT assay; type: cell-based
[5] = Cytotoxicity against human HPDE6c7 cells assessed as reduction in cell viability measured after 24 hrs by MTT assay; type: functional
SW-620 [6] = assay: Antitumour activity against human SW-620 cells xenografted in Balb/c mouse assessed as inhibition of tumour growth at 5 mg/kg, ip measured after 21 days; type: functional; details: SW-620, ip, 504 h, time 21 day, read-out: TGI
[7] = Cytotoxicity against human NCM460 cells assessed as reduction in cell viability measured after 24 hrs by MTT assay; type: cell-based
[8] = Cytotoxicity against human L02 cells assessed as reduction in cell viability measured after 24 hrs by MTT assay; type: cell-based
[9] = molecular target: Heat shock protein HSP 90-alpha (Homo sapiens, UniProt P07900); assay: Inhibition of recombinant human N terminal his-tagged HSP90 alpha (1 to 732 residues) expressed in Escherichia coli measured after 60 mins by Flourescence polarization assay

Structure (SMILES)	IC50 (A549) [µM]	IC50 (OVCAR-3) [µM]	IC50 (LoVo) [µM]	IC50 (HepG2) [µM]	IC50 (SGC-7901) [µM]	IC50 (PANC-1) [µM]	Activity (SW-620 [1])	CC50 at 24 h [2] [µM]	CC50 at 24 h [3] [µM]	CC50 at 24 h [4] [µM]	CC50 [5] [µM]	inhibition in vivo at 5 mg/kg (SW-620 [6]) [%]	CC50 at 24 h [7] [µM]	CC50 at 24 h [8] [µM]	IC50 [9] [µM]
COc1ccccc1-n1cc(CN2C(=O)C[C@@H]3CC[C@@]2(C)C3(C)C)nn1	0.35	0.14	0.07	0.11	0.28	0.12									
COc1ccc(-n2cc(CN3C(=O)C[C@@H]4CC[C@@]3(C)C4(C)C)nn2)cc1	0.05	0.25	0.07	0.1	0.48	0.33									
C=CCNC1=C2C[C@@H](C)C[C@H](OC)[C@H](O)[C@@H](C)/C=C(\C)[C@H](OC(N)=O)[C@@H](OC)/C=C\C=C(/C)C(=O)NC(=CC1=O)C2=O [TANESPIMYCIN]	> 10	0.48	0.26	0.33	> 10	3.21	Active	21.5	14.2	7.94	19.5	29.6	14.2	11.7	
CC1(C)[C@H]2CC[C@]1(C)N(Cc1cn(-c3ccc(F)cc3)nn1)C(=O)C2	0.23	0.2	0.04	0.09	0.5	0.11									
Cc1ccccc1-n1cc(CN2C(=O)C[C@@H]3CC[C@@]2(C)C3(C)C)nn1	0.09	0.15	0.08	0.15	0.35	0.25									
Cc1ccc(-n2cc(CN3C(=O)C[C@@H]4CC[C@@]3(C)C4(C)C)nn2)cc1	0.4	0.04	0.05	0.48	0.39	0.27									
COc1cccc(-n2cc(CN3C(=O)C[C@@H]4CC[C@@]3(C)C4(C)C)nn2)c1	0.24	0.28	0.08	0.07	0.59	0.86									
CC1(C)[C@H]2CC[C@]1(C)N(Cc1cn(-c3cccc(F)c3)nn1)C(=O)C2	0.18	0.43	0.09	0.08	0.53	0.22									
CC1(C)[C@H]2CC[C@]1(C)N(Cc1cn(-c3cccc(O)c3)nn1)C(=O)C2	0.18	0.37	0.41	0.07	0.27	0.28									
Cc1cccc(-n2cc(CN3C(=O)C[C@@H]4CC[C@@]3(C)C4(C)C)nn2)c1	0.05	0.16	0.05	0.3	0.41	0.24									
CC1(C)[C@H]2CC[C@]1(C)N(Cc1cn(-c3ccc(O)cc3)nn1)C(=O)C2	0.14	0.41	0.41	0.08	0.33	0.1									
CC1(C)[C@H]2CC[C@]1(C)N(Cc1cn(-c3ccc(C#N)cc3)nn1)C(=O)C2	0.14	0.38	0.09	0.05	0.5	0.25		5.52	10.8	11.2	> 100		8.14	15.7	0.0218
CC1(C)[C@H]2CC[C@]1(C)N(Cc1cn(-c3cccc(Cl)c3)nn1)C(=O)C2	0.06	0.05	0.07	0.06	0.51	0.26		13.5	8.84	69.8	13		8.41	8.51	0.00738
CC1(C)[C@H]2CC[C@]1(C)N(Cc1cn(-c3ccccc3Br)nn1)C(=O)C2	0.13	0.14	0.06	0.15	0.5	0.28									
CC1(C)[C@H]2CC[C@]1(C)N(Cc1cn(-c3ccc(Cl)cc3)nn1)C(=O)C2	0.07	0.16	0.16	0.09	0.41	0.44									
CC1(C)[C@H]2CC[C@]1(C)N(Cc1cn(-c3ccccc3F)nn1)C(=O)C2	0.24	0.3	0.04	0.06	0.3	0.15		19.2	15.1	5.16	26.2		5.26	13.3	0.00268
CC1(C)[C@H]2CC[C@]1(C)N(Cc1cn(-c3ccccc3C#N)nn1)C(=O)C2	0.1	0.11	0.14	0.18	0.26	0.24		13.8	23.3	9.45	16		37.5	46.1	0.00799
CC1(C)[C@H]2CC[C@]1(C)N(Cc1cn(-c3ccccc3Cl)nn1)C(=O)C2	0.07	0.04	0.19	0.06	0.22	0.27		13.3	4.13	5.37	3.94		10.8	20.1	0.00328
CC1(C)[C@H]2CC[C@]1(C)N(Cc1cn(-c3ccccc3)nn1)C(=O)C2	0.07	0.05	0.05	0.09	0.24	0.16		23.4	9.73	6.69	> 100		19.6	6.23	0.034
CC1(C)[C@H]2CC[C@]1(C)N(Cc1cn(-c3ccc(Br)cc3)nn1)C(=O)C2	0.08	0.14	0.06	0.11	0.45	0.2									
CC1(C)[C@H]2CC[C@]1(C)N(Cc1cn(-c3cccc(C#N)c3)nn1)C(=O)C2	0.44	0.23	0.32	0.04	0.25	0.26									
CC1(C)[C@H]2CC[C@]1(C)N(Cc1cn(-c3ccccc3O)nn1)C(=O)C2	0.23	0.09	0.54	0.12	0.41	0.23									
